What follows are molecules tested on M. catarrhalis A894 (assay: MIC determination by microdilution in cation-adjusted Mueller-Hinton Broth (NCCLS)). Details: Moraxella catarrhalis, pH 7.2-7.3.
Assay type: cell-based
Experimental: These assays have been performed following the description given in “Methods for dilution Antimicrobial Susceptibility Tests for Bacteria that Grow Aerobically, 4th ed.; Approved standard: NCCLS Document M7-A4; National Committee for Clinical Laboratory Standards: Villanova, Pa., USA, 1997”. Minimal inhibitory concentrations (MICs; mg/l) were determined in cation-adjusted Mueller-Hinton Broth (BBL) by a microdilution method following NCCLS guidelines (National Committee for Clinical Laboratory Standards. Methods for Dilution Antimicrobial Susceptibility). The pH of the test medium was 7.2-7.3. All Example compounds were tested against several Gram-positive and Gram-negative bacteria.

SMILES | MIC [µg/mL]
COc1ccc2ncc(F)c(NC3CN(C[C@@H]4CN(c5ccc6c(c5)NC(=O)CO6)C(=O)O4)C3)c2n1 [Example 23, 6-{(R)-5-[3-(3-fluoro-6-methoxy-[1,5]naphthyridin-4-ylamino)-azetidin-1-ylmethyl]-2-oxo-oxazolidin-3-yl}-4H-benzo[1,4]oxazin-3-one] | ≤ 0.031
COc1cnc2cccc(C=C3CCN(C[C@@H]4CN(c5ccc6c(c5)NC(=O)CS6)C(=O)O4)CC3)c2n1 [Example 12, 6-{(R)-5-[4-(3-methoxy-quinoxalin-5-ylmethylene)-piperidin-1-ylmethyl]-2-oxo-oxazolidin-3-yl}-4H-benzo[1,4]thiazin-3-one] | ≤ 0.031
COc1ccc2nccc([C@@H](O)[C@H](O)C3CCN(C[C@@H]4CN(c5ccc6c(c5)NC(=O)CS6)C(=O)O4)C3)c2n1 (mixture of isomers) [Example 11, 6-((R)-5-{(RS)-3-[(1R,2R)-1,2-dihydroxy-2-(6-methoxy-[1,5]naphthyridin-4-yl)-ethyl]-pyrrolidin-1-ylmethyl}-2-oxo-oxazolidin-3-yl)-4H-benzo[1,4]thiazin-3-one] | 0.125

Source: patent US9505750B2, “5-aminocyclylmethyl-oxazolidin-2-one derivatives” (priority 2007, dated 2016)
